Source: patent US12053549B2, “Laxative tablet” (SETOLAS Holdings, Inc., priority 2018, dated 2024)

Assay: Volume-based 50% particle diameter (D50) of raw materials by laser diffractometry
Type: physicochemical
Conditions: raw material
Protocol: 0.7 g of magnesium oxide was placed in a beaker with 70 mL of 0.2% sodium hexametaphosphate solution, and the mixture was subjected to dispersion treatment (3 minutes) using an ultrasonic homogenizer (Nippon Seiki, US-300). The volume-based 50% particle size (D50) of the magnesium oxide was then measured using a laser diffraction scattering particle size analyzer (Nikkiso, Microtrac).

In the case of `[O]=[Mg]` [Magnesium oxide], the “volume-based 50% particle size (D50)” value is reported as 6.5 μm.
